Test results published in US20250302832A1, “PYRAZINE DERIVATIVES AND USES THEREOF” (FOGHORN THERAPEUTICS INC., priority 2022, published 2025).

Assays:
[1] = molecular target: T1, HiBit-BRM fusion protein (Homo sapiens, UniProt P51531); assay: HiBiT-BRM cell-based degradation assay (Nano-Glo HiBiT lytic detection, 24 h); settings: HeLa cell line expressing HiBiT-BRM; for DC50: read-out: BRM HiBit Degradation IC50
T1 construct: expressed in transfected cells
Procedure: (§1) Procedure: A stable HeLa cell line expressing HiBiT-BRM was generated. On day 0, 5000 cells were seeded in 40 μL of media into each well of 384-well cell culture plates. On day 1, cells were treated with 120 nL DMSO or 120 nL of 3-fold serially DMSO-diluted compounds (10 points in duplicate with 30 μM as final top dose). Subsequently plates were incubated for 24 h in a standard tissue culture incubator and equilibrated at room temperature for 15 minutes. Nano-GB HiBiT Lytic Detection System (Promega N3050) reagent was freshly prepared and 20 ul was added to each well. Upon addition of this LgBit-containing reagent, the HiBiT and LgBiT proteins associate to form the luminescent NanoBiT luciferase. The plates were shaken for 10 minutes at room temperature and the bioluminescence read using an EnVision plate reader (PerkinElmer).
(§2) The degradation % was calculated using the following formula: % degradation=100%−100%×(Lumsample−LuMLC)/(LuMHC−LuMLC). DMSO treated cells are employed as High Control (HC) and 2 μM of a known BRM/BRG1 degrader standard treated cells are employed as Low Control (LC).

[2] = molecular target: T2, HiBit-BRG1 fusion protein (Homo sapiens, UniProt P51532); assay: HiBiT-BRG1 cell-based degradation assay (Nano-Glo HiBiT lytic detection, 24 h); settings: HeLa cell line expressing HiBit-BRG1 and LgBit; for Dmax: read-out: BRG1 HiBit Degradation Maximum (%); for DC50: read-out: BRMG1 HiBit Degradation IC50
T2 construct: expressed in transfected cells
Procedure: as §1, with “On day 1, cells were treated with 120 nL DMSO or 120 nL of 3-fold serially DMSO-diluted compounds (10 points in duplicate with 30 μM as final top dose).” left out
For measurement of BRG1 degradation, a stable HeLa cell line expressing HiBit-BRG1 and LgBit was generated. The same protocol as above was then followed.
as §2

T1 sequence (P51531 whole entry, the tested form may be a part): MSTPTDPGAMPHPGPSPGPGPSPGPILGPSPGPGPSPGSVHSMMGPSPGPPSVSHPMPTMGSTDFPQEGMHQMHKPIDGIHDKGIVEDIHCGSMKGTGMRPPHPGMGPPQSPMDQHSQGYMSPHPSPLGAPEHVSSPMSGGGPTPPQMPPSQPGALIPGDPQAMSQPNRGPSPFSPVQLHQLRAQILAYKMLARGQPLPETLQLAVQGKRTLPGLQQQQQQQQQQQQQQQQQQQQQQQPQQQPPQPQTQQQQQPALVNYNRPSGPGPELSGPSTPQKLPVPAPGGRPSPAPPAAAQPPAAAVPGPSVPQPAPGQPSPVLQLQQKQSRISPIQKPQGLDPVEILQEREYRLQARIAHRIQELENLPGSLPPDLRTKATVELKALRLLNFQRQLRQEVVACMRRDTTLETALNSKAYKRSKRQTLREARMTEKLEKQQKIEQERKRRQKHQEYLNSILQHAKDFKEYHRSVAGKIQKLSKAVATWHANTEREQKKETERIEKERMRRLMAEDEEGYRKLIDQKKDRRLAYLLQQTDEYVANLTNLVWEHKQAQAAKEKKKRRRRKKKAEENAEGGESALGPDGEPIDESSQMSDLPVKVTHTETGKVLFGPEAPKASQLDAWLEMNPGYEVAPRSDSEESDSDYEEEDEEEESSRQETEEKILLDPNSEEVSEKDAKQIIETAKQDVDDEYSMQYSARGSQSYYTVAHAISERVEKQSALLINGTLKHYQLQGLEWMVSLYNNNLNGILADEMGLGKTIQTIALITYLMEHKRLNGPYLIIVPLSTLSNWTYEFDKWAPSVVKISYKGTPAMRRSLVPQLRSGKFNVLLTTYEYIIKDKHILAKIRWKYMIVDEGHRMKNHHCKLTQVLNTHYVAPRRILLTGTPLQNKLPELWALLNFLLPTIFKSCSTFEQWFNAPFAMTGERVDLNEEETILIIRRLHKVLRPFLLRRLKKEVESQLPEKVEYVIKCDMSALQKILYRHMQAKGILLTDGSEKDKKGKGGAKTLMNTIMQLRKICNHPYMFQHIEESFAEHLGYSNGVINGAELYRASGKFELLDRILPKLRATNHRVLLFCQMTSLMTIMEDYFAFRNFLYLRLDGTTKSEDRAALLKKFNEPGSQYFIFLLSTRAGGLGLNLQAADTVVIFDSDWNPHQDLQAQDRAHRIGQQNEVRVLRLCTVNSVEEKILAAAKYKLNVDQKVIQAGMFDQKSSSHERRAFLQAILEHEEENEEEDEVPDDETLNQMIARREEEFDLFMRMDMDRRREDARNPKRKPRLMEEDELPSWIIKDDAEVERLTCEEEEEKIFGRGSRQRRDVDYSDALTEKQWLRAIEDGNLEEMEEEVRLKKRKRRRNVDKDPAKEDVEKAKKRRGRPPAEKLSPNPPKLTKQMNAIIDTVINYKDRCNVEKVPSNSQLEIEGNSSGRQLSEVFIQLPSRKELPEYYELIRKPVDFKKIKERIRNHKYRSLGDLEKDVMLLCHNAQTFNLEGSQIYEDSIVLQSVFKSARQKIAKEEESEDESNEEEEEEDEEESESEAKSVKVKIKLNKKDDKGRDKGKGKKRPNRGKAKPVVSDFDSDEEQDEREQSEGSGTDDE
T2 sequence (P51532 whole entry, the tested form may be a part): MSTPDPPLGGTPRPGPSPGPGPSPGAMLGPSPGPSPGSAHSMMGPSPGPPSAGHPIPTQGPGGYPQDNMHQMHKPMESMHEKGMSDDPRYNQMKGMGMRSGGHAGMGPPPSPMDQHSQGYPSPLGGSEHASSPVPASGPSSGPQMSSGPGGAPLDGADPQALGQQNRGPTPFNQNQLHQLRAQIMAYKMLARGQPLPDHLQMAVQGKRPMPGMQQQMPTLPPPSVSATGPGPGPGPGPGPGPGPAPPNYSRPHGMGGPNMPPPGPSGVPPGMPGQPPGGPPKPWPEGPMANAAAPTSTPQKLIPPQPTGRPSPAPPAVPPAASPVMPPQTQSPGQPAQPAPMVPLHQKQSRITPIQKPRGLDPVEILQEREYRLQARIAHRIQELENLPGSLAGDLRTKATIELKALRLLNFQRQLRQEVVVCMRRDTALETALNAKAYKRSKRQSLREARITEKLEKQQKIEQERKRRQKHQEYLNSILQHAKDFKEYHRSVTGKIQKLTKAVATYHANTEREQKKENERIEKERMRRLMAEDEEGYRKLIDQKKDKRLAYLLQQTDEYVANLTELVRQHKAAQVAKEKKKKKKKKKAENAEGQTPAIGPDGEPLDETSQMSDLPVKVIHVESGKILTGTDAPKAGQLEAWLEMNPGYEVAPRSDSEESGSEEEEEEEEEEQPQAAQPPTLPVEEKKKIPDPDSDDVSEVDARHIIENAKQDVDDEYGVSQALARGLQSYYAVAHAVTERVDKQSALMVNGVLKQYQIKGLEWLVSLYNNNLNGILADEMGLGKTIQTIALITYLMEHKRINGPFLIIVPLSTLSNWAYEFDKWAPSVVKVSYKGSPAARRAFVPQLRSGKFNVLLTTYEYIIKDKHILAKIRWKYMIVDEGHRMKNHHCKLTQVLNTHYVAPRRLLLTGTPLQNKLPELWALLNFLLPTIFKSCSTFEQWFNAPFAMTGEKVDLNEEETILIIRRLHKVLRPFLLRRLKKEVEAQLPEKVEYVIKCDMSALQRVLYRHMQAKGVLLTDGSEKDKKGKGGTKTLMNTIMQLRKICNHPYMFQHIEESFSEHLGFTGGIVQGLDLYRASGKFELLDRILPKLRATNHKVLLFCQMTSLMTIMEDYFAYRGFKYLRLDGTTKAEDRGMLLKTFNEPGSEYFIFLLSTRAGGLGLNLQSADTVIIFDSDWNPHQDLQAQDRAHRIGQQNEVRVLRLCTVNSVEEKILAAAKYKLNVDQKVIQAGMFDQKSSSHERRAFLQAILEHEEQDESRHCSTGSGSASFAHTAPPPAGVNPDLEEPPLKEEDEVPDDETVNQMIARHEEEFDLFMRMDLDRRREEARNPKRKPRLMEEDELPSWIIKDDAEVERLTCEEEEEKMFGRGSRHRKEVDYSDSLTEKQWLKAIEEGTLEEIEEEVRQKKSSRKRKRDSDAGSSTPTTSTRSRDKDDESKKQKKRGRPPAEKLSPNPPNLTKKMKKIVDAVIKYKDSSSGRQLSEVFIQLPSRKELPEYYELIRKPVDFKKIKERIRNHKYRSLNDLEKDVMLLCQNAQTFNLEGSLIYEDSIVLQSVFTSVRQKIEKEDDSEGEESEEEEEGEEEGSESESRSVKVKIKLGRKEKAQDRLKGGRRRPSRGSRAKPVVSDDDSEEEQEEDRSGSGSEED

SMILES | BRM HiBit Degradation Maximum (%) [1] | DC50 [1] | Dmax [2] | DC50 [2]
Cc1ncsc1-c1ccc([C@H](C)NC(=O)[C@@H]2C[C@@H](O)CN2C(=O)[C@@H](c2cc(OCCCN3CC(c4cc5nnc(-c6ccccc6O)cc5n4C)C3)no2)C(C)C)cc1 [Compound 11, (2S,4R)-4-hydroxy-1-((R)-2-(3-(3-(3-(3-(2-hydroxyphenyl)-5-methyl-5H-pyrrolo[3,2-c]pyridazin-6-yl)azetidin-1-yl)propoxy)isoxazol-5-yl)-3-methylbutanoyl)-N-((S)-1-(4-(4-methylthiazol-5-yl)phenyl)ethyl)pyrrolidine-2-carboxamide] | A (“A” indicates maximum degradation ≥75%) | > 0.01 µM | < 50% | –
Cc1ncsc1-c1ccc([C@H](C)NC(=O)[C@@H]2C[C@@H](O)CN2C(=O)[C@@H](c2cc(N3CCC(N4CC(c5cc6nnc(-c7ccccc7O)cc6n5C)C4)CC3)no2)C(C)C)cc1 [Compound 12, (2S,4R)-4-hydroxy-1-((R)-2-(3-(4-(3-(3-(2-hydroxyphenyl)-5-methyl-5H-pyrrolo[3,2-c]pyridazin-6-yl)azetidin-1-yl)piperidin-1-yl)isoxazol-5-yl)-3-methylbutanoyl)-N-((S)-1-(4-(4-methylthiazol-5-yl)phenyl)ethyl)pyrrolidine-2-carboxamide] | A (“A” indicates maximum degradation ≥75%) | < 0.01 µM | > 75% | > 0.01 µM
Cc1ncsc1-c1ccc([C@H](C)NC(=O)[C@@H]2C[C@@H](O)CN2C(=O)[C@@H](c2cc(N3CCC(C(=O)N4CC(c5cc6nnc(-c7ccccc7O)cc6n5C)C4)CC3)no2)C(C)C)cc1 [Compound 13, (2S,4R)-4-hydroxy-1-[(2R)-2-[3-(4-{3-[3-(2-hydroxyphenyl)-5-methylpyrrolo[3,2-c]pyridazin-6-yl]azetidine-1-carbonyl}piperidin-1-yl)-1,2-oxazol-5-yl]-3-methylbutanoyl]-N-[(1S)-1-[4-(4-methyl-1,3-thiazol-5-yl)phenyl]ethyl]pyrrolidine-2-carboxamide] | A (“A” indicates maximum degradation ≥75%) | < 0.01 µM | > 50% | > 0.1 µM
Cc1ncsc1-c1ccc([C@H](C)NC(=O)[C@@H]2C[C@@H](O)CN2C(=O)[C@@H](c2cc(OCCN3CC(c4cc5nnc(-c6ccccc6O)cc5n4C(F)F)C3)no2)C(C)C)cc1 [Compound 14, (2S,4R)-1-((R)-2-(3-(2-(3-(5-(difluoromethyl)-3-(2-hydroxyphenyl)-5H-pyrrolo[3,2-c]pyridazin-6-yl)azetidin-1-yl)ethoxy)isoxazol-5-yl)-3-methylbutanoyl)-4-hydroxy-N—((S)-1-(4-(4-methylthiazol-5-yl)phenyl)ethyl)pyrrolidine-2-carboxamide] | A (“A” indicates maximum degradation ≥75%) | > 0.01 µM | > 50% | > 0.01 µM
Cc1ncsc1-c1ccc([C@H](C)NC(=O)[C@@H]2C[C@@H](O)CN2C(=O)[C@@H](c2cc(OCC(=O)N3CC(c4cc5nnc(-c6ccccc6O)cc5n4C)C3)no2)C(C)C)cc1 [Compound 15, (2S,4R)-4-hydroxy-1-((R)-2-(3-(2-(3-(3-(2-hydroxyphenyl)-5-methyl-5H-pyrrolo[3,2-c]pyridazin-6-yl)azetidin-1-yl)-2-oxoethoxy)isoxazol-5-yl)-3-methylbutanoyl)-N-((S)-1-(4-(4-methylthiazol-5-yl)phenyl)ethyl)pyrrolidine-2-carboxamide] | A (“A” indicates maximum degradation ≥75%) | > 0.1 µM | < 50% | –
Cc1ncsc1-c1ccc([C@H](C)NC(=O)[C@@H]2C[C@@H](O)CN2C(=O)[C@@H](c2cc(OCCN3CC(c4cc5nnc(-c6ccccc6O)cc5n4C4COC4)C3)no2)C(C)C)cc1 [Compound 16, (2S,4R)-4-hydroxy-1-((R)-2-(3-(2-(3-(3-(2-hydroxyphenyl)-5-(oxetan-3-yl)-5H-pyrrolo[3,2-c]pyridazin-6-yl)azetidin-1-yl)ethoxy)isoxazol-5-yl)-3-methylbutanoyl)-N—((S)-1-(4-(4-methylthiazol-5-yl)phenyl)ethyl)pyrrolidine-2-carboxamide] | C (“C” indicates maximum degradation <50%) | – | < 50% | –
Cc1ncsc1-c1ccc([C@H](C)NC(=O)[C@@H]2C[C@@H](O)CN2C(=O)[C@@H](c2cc(OCCN3CCC(c4cc5nnc(-c6ccccc6O)cc5[nH]4)CC3)no2)C(C)C)cc1 [Compound 17, (2S,4R)-4-hydroxy-1-[(2R)-2-[3-(2-{4-[3-(2-hydroxyphenyl)-5H-pyrrolo[3,2-c]pyridazin-6-yl]piperidin-1-yl}ethoxy)-1,2-oxazol-5-yl]-3-methylbutanoyl]-N-[(1S)-1-[4-(4-methyl-1,3-thiazol-5-yl)phenyl]ethyl]pyrrolidine-2-carboxamide] | A (“A” indicates maximum degradation ≥75%) | < 0.01 µM | > 75% | > 0.01 µM
Cc1ncsc1-c1ccc([C@H](C)NC(=O)[C@@H]2C[C@@H](O)CN2C(=O)[C@H](c2cc(-c3cnc(N4CCC(c5cc6nnc(-c7ccccc7O)cc6[nH]5)CC4)nc3)no2)C(C)C)cc1 [Compound 19, (2S,4R)-4-hydroxy-1-[(2S)-2-[3-(2-{4-[3-(2-hydroxyphenyl)-5H-pyrrolo[3,2-c]pyridazin-6-yl]piperidin-1-yl}pyrimidin-5-yl)-1,2-oxazol-5-yl]-3-methylbutanoyl]-N-[(1S)-1-[4-(4-methyl-1,3-thiazol-5-yl)phenyl]ethyl]pyrrolidine-2-carboxamide] | B (“B” indicates maximum degradation ≥50%) | > 0.01 µM | < 50% | –
Cc1ncsc1-c1ccc([C@H](C)NC(=O)[C@@H]2C[C@@H](O)CN2C(=O)[C@@H](c2cc(OCCN3CCC(c4cc5nnc(-c6ccccc6O)cc5n4C)CC3)no2)C(C)C)cc1 [Compound 20, (2S,4R)-4-hydroxy-1-[(2R)-2-[3-(2-{4-[3-(2-hydroxyphenyl)-5-methylpyrrolo[3,2-c]pyridazin-6-yl]piperidin-1-yl}ethoxy)-1,2-oxazol-5-yl]-3-methylbutanoyl]-N-[(1S)-1-[4-(4-methyl-1,3-thiazol-5-yl)phenyl]ethyl]pyrrolidine-2-carboxamide] | A (“A” indicates maximum degradation ≥75%) | < 0.01 µM | > 75% | < 0.01 µM
Cc1ncsc1-c1ccc([C@H](C)NC(=O)[C@@H]2C[C@@H](O)CN2C(=O)[C@@H](c2cc(-c3cnc(N4CCC(c5cc6nnc(-c7ccccc7O)cc6n5C)CC4)nc3)no2)C(C)C)cc1 [Compound 21, (2S,4R)-4-hydroxy-1-((R)-2-(3-(2-(4-(3-(2-hydroxyphenyl)-5-methyl-5H-pyrrolo[3,2-c]pyridazin-6-yl)piperidin-1-yl)pyrimidin-5-yl)isoxazol-5-yl)-3-methylbutanoyl)-N—((S)-1-(4-(4-methylthiazol-5-yl)phenyl)ethyl) pyrrolidine-2-carboxamide] | A (“A” indicates maximum degradation ≥75%) | < 0.01 µM | > 50% | < 0.01 µM
